pKi: −log10 of the molar value.
Legend:
[1] = molecular target: T1, histamine H4 receptor (Homo sapiens, UniProt Q9H3N8); experiment: 3H-histamine competition binding assay, membranes of transfected HEK-293 cells; conditions: displacement of [3H]-histamine, 25° C., 1 hour; Ki by Cheng-Prusoff equation; read-out: Potency
T1 construct: expressed in transfected cells
Description: The potency of compounds of the invention in displacing ^3H-histamine in competition binding assays is assessed by methods described in Esbenshade, et al., Biochemical Pharmacology (2004), vol. 68, pp. 933-945. In this assay, membranes were prepared from HEK-293 cells transiently transfected with the pCINeo expression vector harboring the histamine H4 receptor by homogenization of the cells on ice in TE buffer (50 mM Tris-HCl buffer, pH 7.4, containing 5 mM EDTA), 1 mM benzamidine, 2 μg/ml aprotinin, 1 μg/ml leupeptin, and 1 μg/ml pepstatin. The homogenate was centrifuged at 40,000 g for 20 minutes at 4° C. This step was repeated, and the resulting pellet was resuspended in TE buffer. Aliquots were frozen at −70° C. until needed. On the day of assay, membranes were thawed and diluted with TE buffer. Competition radioligand binding assays were performed with increasing concentrations of test compound in the presence of [^3H]-histamine incubated at 25° C. for 1 hour in a total volume of 0.5 ml of 50 mM Tris, 5 mM EDTA, pH 7.4. All binding reactions were terminated by filtration under vacuum onto polyethylenimine (0.3%) presoaked Unifilters (PerkinElmer Life Sciences) or Whatman GF/B filters (Whatman, Clifton, N.J.) followed by three brief washes with 4 ml of ice-cold TE buffer. Bound radiolabel was determined by liquid scintillation counting. For all of the radioligand competition binding assays, IC50 values and Hill slopes were determined by Hill transformation of the data and Ki values were determined by the Cheng-Prusoff equation. The following table of representative histamine H4 receptor ligands is provided, along with potency values: […]

[2] = molecular target: T1, histamine H4 receptor; experiment: In vitro histamine H4 potency in FLIPR (Ca2+ flux, Fluo-4, HEK-293 cells coexpressing Gαqi5); type: cell-based; conditions: Kb values for antagonists and inverse agonists, EC50 values for partial agonists
From the text: There are many methods available to show the effectiveness of compounds as histamine H4 receptor ligands. Histamine H4 receptors from mammalian species have been cloned. Methods to clone, express, and assess the potency and functional activity of such cloned genes are well known to those skilled in the art of molecular biology. Examples of methods of cloning and expressing histamine H4 receptors, and of assessing the potency and functional activity are described in Nguyen, et al. Molecular Pharmacology (2001) vol. 59 pp. 427-433; Zhu, et al. Molecular Pharmacology (2001) vol. 59 pp. 434-441; Coge, et al., Biochemical and Biophysical Research Communications (2001) vol. 284, pp. 301-309; Liu, et al. Molecular Pharmacology (2001) vol. 59 pp. 420-426; Liu, et al. Journal of Pharmacology and Experimental Therapeutics (2001) v. 299, pp. 121-130; and Thurmond, et al. Journal of Pharmacology and Experimental Therapeutics (2004) v. 309, pp. 404-413. In the present case, to determine the potency and effectiveness of representative compounds of this invention as histamine-H4 receptor ligands (H4 receptor ligands), the following tests were conducted according to previously described methods (see Esbenshade, et al., Biochemical Pharmacology (2004), vol. 68, pp. 933-945, and in Krueger, et al., Journal of Pharmacology and Experimental Therapeutics (2005) v. 314, pp. 271-281): histamine H4 receptors were cloned and stably expressed in HEK-293 (human embryonic kidney) cells coexpressing a Gαqi5. Before testing, cells are loaded with a Ca^+2 sensitive fluorescent dye, in this case Fluo-4. In the case of partial agonist or agonist ligands, addition of compound to the cells leads to the increase in intracellular Ca^+2 which is detected by FLIPR (Fluorescence Imaging Plate Reader; Molecular Devices, Sunnyvale, Calif.) technology. In a similar manner, compounds that are antagonists or inverse agonists, block the increase in fluorescence induced by the full histamine H4 agonist histamine, and partial agonists reduce the amount of fluorescence induced by the full histamine H4 agonist histamine. The fluorescence intensities measured before addition of the test compound are subtracted from the fluorescence intensities at later time points. Peak response values determined at each concentration of ligand are expressed as a percentage of the response obtained with the full agonist histamine. Concentration versus response data are analyzed to obtain compound potency as Kb values for antagonists and inverse agonists and as EC50 values for partial agonists.

T1 sequence (Q9H3N8 whole entry, species assumed): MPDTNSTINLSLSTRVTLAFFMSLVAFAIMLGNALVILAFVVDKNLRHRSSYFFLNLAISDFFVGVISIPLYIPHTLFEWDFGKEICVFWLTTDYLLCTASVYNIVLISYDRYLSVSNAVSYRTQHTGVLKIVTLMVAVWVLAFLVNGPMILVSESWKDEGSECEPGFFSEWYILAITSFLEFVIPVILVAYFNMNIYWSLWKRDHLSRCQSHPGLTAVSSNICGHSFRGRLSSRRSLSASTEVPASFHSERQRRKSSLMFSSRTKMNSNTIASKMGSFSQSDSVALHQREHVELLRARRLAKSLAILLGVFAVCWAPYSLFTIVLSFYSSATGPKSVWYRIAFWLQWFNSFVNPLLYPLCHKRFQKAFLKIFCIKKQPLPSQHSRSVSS

Compound | pKi [1] | Potency [2] [nM]
CN[C@@H]1CCN(c2nc(N)nc3c2CCCc2sccc2-3)C1 [Example 3, 4-[(3R)-3-(methylamino)pyrrolidin-1-yl]-6,7-dihydro-5H-thieno[2′,3′:6,7]cyclohepta[1,2-d]pyrimidin-2-amine] | 8.06 | 3.7
CC(C)(C)n1ncc2c1CCCc1c-2nc(N)nc1N1CC2CCCNC2C1 (stereo not shown) [Example 10, 8-tert-butyl-4-octahydro-6H-pyrrolo[3,4-b]pyridin-6-yl-5,6,7,8-tetrahydropyrazolo[3′,4′:6,7]cyclohepta[1,2-d]pyrimidin-2-amine] | 7.36 | 187
CN1CCN(c2nc(N)nc3c2CCc2nn(-c4ccccc4)nc2-3)CC1 [Example 20, 6-(4-methylpiperazin-1-yl)-2-phenyl-4,5-dihydro-2H-[1,2,3]triazolo[4,5-h]quinazolin-8-amine] | 5.89 | –
Cc1cc2c(o1)CCCc1c-2nc(N)nc1N1CC2CCCNC2C1 (stereo not shown) [Example 5, 9-methyl-4-octahydro-6H-pyrrolo[3,4-b]pyridin-6-yl-6,7-dihydro-5H-furo[2′,3′:6,7]cyclohepta[1,2-d]pyrimidin-2-amine] | – | 34
Cc1noc2c1-c1nc(N)nc(N3CCN(C)CC3)c1CCC2 [Example 16, 10-methyl-4-(4-methylpiperazin-1-yl)-6,7-dihydro-5H-isoxazolo[5′,4′:6,7]cyclohepta[1,2-d]pyrimidin-2-amine] | – | 2350
CN[C@@H]1CCN(c2nc(N)nc3c2CCCc2c-3cnn2-c2ccccc2)C1 [Example 11, 4-[(3R)-3-(methylamino)pyrrolidin-1-yl]-8-phenyl-5,6,7,8-tetrahydropyrazolo[3′,4′:6,7]cyclohepta[1,2-d]pyrimidin-2-amine] | – | 46
Nc1nc2c(c(N3CC[C@@H](N)C3)n1)CCCc1cccnc1-2 [Example 15, 4-[(3R)-3-aminopyrrolidin-1-yl]-6,7-dihydro-5H-pyrido[3′,2′:6,7]cyclohepta[1,2-d]pyrimidin-2-amine] | – | 35
Nc1nc2c(c(N3CC4CCCNC4C3)n1)CCCc1sc(-c3ccccc3)cc1-2 (stereo not shown) [Example 13, 4-octahydro-6H-pyrrolo[3,4-b]pyridin-6-yl-9-phenyl-6,7-dihydro-5H-thieno[2′,3′:6,7]cyclohepta[1,2-d]pyrimidin-2-amine] | – | 700
Nc1nc2c(c(N3CC4CCCNC4C3)n1)CCCc1ccoc1-2 (stereo not shown) [Example 7, 4-octahydro-6H-pyrrolo[3,4-b]pyridin-6-yl-6,7-dihydro-5H-furo[3′,2′:6,7]cyclohepta[1,2-d]pyrimidin-2-amine] | 6.78 | 20
Cc1cc2c(o1)CCCc1c-2nc(N)nc1N1CC[C@@H](N)C1 [Example 6, 4-[(3R)-3-aminopyrrolidin-1-yl]-9-methyl-6,7-dihydro-5H-furo[2′,3′:6,7]cyclohepta[1,2-d]pyrimidin-2-amine] | – | 252
Nc1nc2c(c(N3CC4CCCNC4C3)n1)CCCc1sccc1-2 (stereo not shown) [Example 1, 4-octahydro-6H-pyrrolo[3,4-b]pyridin-6-yl-6,7-dihydro-5H-thieno[2′,3′:6,7]cyclohepta[1,2-d]pyrimidin-2-amine] | 8.22 | 17
CN1CCN(c2nc(N)nc3c2CCCc2c-3cnn2C)CC1 [Example 8, 8-methyl-4-(4-methylpiperazin-1-yl)-5,6,7,8-tetrahydropyrazolo[3′,4′:6,7]cyclohepta[1,2-d]pyrimidin-2-amine] | – | 107
Nc1nc2c(c(N3CC[C@@H](N)C3)n1)CCCc1sccc1-2 [Example 2, 4-[(3R)-3-aminopyrrolidin-1-yl]-6,7-dihydro-5H-thieno[2′,3′:6,7]cyclohepta[1,2-d]pyrimidin-2-amine] | 8.00 | 6.6
CN1CCN(c2nc(N)nc3c2CCc2sccc2-3)CC1 [Example 21, 4-(4-methylpiperazin-1-yl)-5,6-dihydrothieno[2,3-h]quinazolin-2-amine] | 7.10 | –
Nc1nc2c(c(N3CC4CCCNC4C3)n1)CCCc1sc(Br)cc1-2 (stereo not shown) [Example 12, 9-bromo-4-octahydro-6H-pyrrolo[3,4-b]pyridin-6-yl-6,7-dihydro-5H-thieno[2′,3′:6,7]cyclohepta[1,2-d]pyrimidin-2-amine] | – | 35
Nc1nc2c(c(N3C[C@H]4CCCN[C@H]4C3)n1)CCCc1sccc1-2 [Example 18, 4-[(4aR,7aR)-octahydro-6H-pyrrolo [3,4-b]pyridin-6-yl]-6,7-dihydro-5H-thieno[2′,3′:6,7]cyclohepta[1,2-d]pyrimidin-2-amine] | 8.74 | 6
CN1CCN(c2nc(N)nc3c2CCCc2cccnc2-3)CC1 [Example 14, 4-(4-methylpiperazin-1-yl)-6,7-dihydro-5H-pyrido[3′,2′:6,7]cyclohepta[1,2-d]pyrimidin-2-amine] | – | 37
Nc1nc2c(c(N3CC4CCCNC4C3)n1)CCCc1occc1-2 (stereo not shown) [Example 4, 4-octahydro-6H-pyrrolo[3,4-b]pyridin-6-yl-6,7-dihydro-5H-furo[2′,3′:6,7]cyclohepta[1,2-d]pyrimidin-2-amine] | 7.92 | 14
Cc1noc2c1-c1nc(N)nc(N3CC[C@@H](N)C3)c1CCC2 [Example 17, 4-[(3R)-3-aminopyrrolidin-1-yl]-10-methyl-6,7-dihydro-5H-isoxazolo[5′,4′:6,7]cyclohepta[1,2-d]pyrimidin-2-amine] | – | 1860
Cn1ncc2c1CCCc1c-2nc(N)nc1N1CC[C@@H](N)C1 [Example 9, 4-[(3R)-3-aminopyrrolidin-1-yl]-8-methyl-5,6,7,8-tetrahydropyrazolo[3′,4′:6,7]cyclohepta[1,2-d]pyrimidin-2-amine] | 6.37 | 105

— patent US8546410B2, “Heteroaryl-fused macrocyclic pyrimidine derivatives” (AbbVie Inc., priority 2008, dated 2013)
